From patent US11773132B2, “Cyclic di-nucleotides as stimulator of interferon genes modulators” (Beijing Xuanyi PharmaSciences Co., Ltd., priority 2017, dated 2023) come the findings set out here.

A value given as a limit tells only on which side of the number the result lay.

Holding throughout (format): cell-based
For assay [1], the target named is T1, hSTING R232 (Homo sapiens, UniProt Q86WV6, H232R).
T1 construct: host or cells: 293T-Dual hSTING R232 cells
Nature of the assay: 293T-Dual hSTING R232 cells, interferon-β expression (Quanti-Luc). The note with it: 293T-Dual hSTING R232 cell line, 24 h, read-out: IFNb EC50. The method, then:
(§1) A test compound with a serial of dilution was prepared in complete medium, and 50 μL of the compound were added to the corresponding well, and incubated with the cells at 37° C. incubator for 24 hr.
To evaluate the effect on interferon-β expression, 20 μL of cell culture supernatant were transferred into a fresh 96-half area-well white plate, 30 μL of Quanti-Luc were added to each well, and luminescence was measured immediately with a luminometer. Four parameter logistic equation was used to calculate EC50 (Table 4).

The target in assay [2] is T2, Human STING (Homo sapiens, UniProt Q86WV6, G230A/H232R/R293Q/R71H).
T2 construct: host or cells: THP1-Dual cells (human monocytic reporter line)
T2 sequence (Q86WV6 whole entry R71H/G230A/H232R/R293Q): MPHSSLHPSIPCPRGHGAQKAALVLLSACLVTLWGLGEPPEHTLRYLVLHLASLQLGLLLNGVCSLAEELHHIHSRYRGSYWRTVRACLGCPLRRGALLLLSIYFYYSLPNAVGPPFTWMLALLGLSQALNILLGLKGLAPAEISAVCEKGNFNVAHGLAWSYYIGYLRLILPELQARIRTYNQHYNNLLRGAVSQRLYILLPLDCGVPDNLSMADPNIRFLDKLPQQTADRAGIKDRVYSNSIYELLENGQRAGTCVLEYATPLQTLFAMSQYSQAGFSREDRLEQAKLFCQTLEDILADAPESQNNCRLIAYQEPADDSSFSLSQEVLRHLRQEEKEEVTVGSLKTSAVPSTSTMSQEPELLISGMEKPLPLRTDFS
Put plainly: EC50 in THP1-Dual cells, NF-kB reporter (QUANTI-Blue). Conditions: THP1 cell line, 24 h, OD620, read-out: ECs50 NF-kB. The protocol:
(§2) THP1-Dual cells (obtained from Invivogen) are maintained in RPM11640 medium with 100 µg/ml of Zeocin and 10 µg/ml of blasticidin at 37° C., 5% CO2, compounds were dissolved in sterile PBS (pH7.4) as 20 mM, 0.5×10^6 cells/ml of THP-1 Dual cells were incubated with indicated concentrations of a compound for 24 hours at 37° C., 5% CO2 incubator. QUANTI-Luc and QUANTI-Blue were prepared and used following the manufacturer's instructions. 10 ul of cell culture supernatant were mixed with QUANTI-Luc and immediately measured using Luminometer; 20 ul of supernatant were mixed with QUANTI-Blue, and incubated at 37° C. for 30 minutes, and read at OD620. EC50 was calculated using Prism with 4-parameter dose-response curve fitting (Table 3).

In assay [3] the target is T2, Human STING. Nature of the assay: EC50 in THP1-Dual cells, IRF3 reporter (QUANTI-Luc). Conditions: THP1 cell line, 24 h. The method, then:
as §2

For assay [4], the target named is T1, hSTING R232. Put plainly: 293T-Dual hSTING R232 cells, IRF activation (Quanti-Blue). Conditions: 293T-Dual hSTING R232 cell line, 24 h, OD 620 nm. The protocol: as §1
To determine the effect on interferon regulatory factor (IRF) activation, 20 μL of cell culture supernatant was transferred into a fresh 96-well plate, 150 μL of Quanti-Blue was added to each well and incubated at 37° C. for 25 min. OD at 620 nm was recorded, and EC50 was calculated with 4 parameter logistic equation.

T1 sequence (Q86WV6 whole entry H232R): as the sequence (Q86WV6 whole entry R71H/G230A/H232R/R293Q) above, with H71R, A230G, Q293R counted along it

Consider `BP1(=O)OC[C@H]2O[C@@H](n3cnc4c(=O)[nH]c(N)nc43)[C@H](F)[C@@H]2OP(=O)(S)OCC2O[C@@H](n3cnc4c(N)ncnc43)[C@H](F)[C@@H]2O1` (single isomer, unassigned) [Compound B1], for which the EC50 at hSTING R232 [1] was 37.5 µM; at Human STING [2], greater than 100 µM; on Human STING [3], 28.2 µM; on hSTING R232 [4], 11.8 µM.
For `BP1(=O)OC[C@H]2O[C@@H](n3cnc4c(=O)[nH]c(N)nc43)[C@H](F)[C@@H]2OP(=O)(S)OCC2O[C@@H](n3cnc4c(N)ncnc43)[C@H](F)[C@@H]2O1` (single isomer, unassigned) [Compound B2] the same measures were 29.1 µM, 74.6 µM, 14.7 µM and 9.82 µM.
On the same counts, the results for `BP1(=O)OC[C@H]2O[C@@H](n3cnc4c(=O)[nH]c(N)nc43)[C@H](F)[C@@H]2OP(=O)(S)OCC2O[C@@H](n3cnc4c(N)ncnc43)[C@H](F)[C@@H]2O1` (single isomer, unassigned) [Compound B3] are 2.97 µM, 5.22 µM, 0.91 µM and 0.32 µM.
For `BP1(=O)OC[C@H]2O[C@@H](n3cnc4c(=O)[nH]c(N)nc43)[C@H](F)[C@@H]2OP(=O)(S)OCC2O[C@@H](n3cnc4c(N)ncnc43)[C@H](F)[C@@H]2O1` (single isomer, unassigned) [Compound B4] the same measures were 2.27 µM, 7.61 µM, 0.61 µM and 0.34 µM.
On to `BP1(=O)OCC2O[C@@H](n3cnc4c(N)ncnc43)[C@H](F)[C@@H]2OP(=O)(S)OC[C@H]2O[C@@H](n3cnc4c(=O)[nH]c(N)nc43)[C@H](F)[C@@H]2O1` (single isomer, unassigned) [Compound C1], for which the EC50 at hSTING R232 [1] was determined as 75 µM; on Human STING [2], 67.1 µM; on Human STING [3], 88.4 µM; at hSTING R232 [4], 34.3 µM.
As to `BP1(=O)OCC2O[C@@H](n3cnc4c(N)ncnc43)[C@H](F)[C@@H]2OP(=O)(S)OC[C@H]2O[C@@H](n3cnc4c(=O)[nH]c(N)nc43)[C@H](F)[C@@H]2O1` (single isomer, unassigned) [Compound C2], the EC50 on hSTING R232 [1] is 0.43 µM; at Human STING [2], 4.93 µM; at Human STING [3], 0.43 µM; on hSTING R232 [4], 0.23 µM.
As for `BP1(=O)OCC2O[C@@H](n3cnc4c(N)ncnc43)[C@H](F)[C@@H]2OP(=O)(S)OC[C@H]2O[C@@H](n3cnc4c(=O)[nH]c(N)nc43)[C@H](F)[C@@H]2O1` (single isomer, unassigned) [Compound C3], the EC50 turned out to be 0.16 µM at hSTING R232 [1], 4.56 µM at Human STING [2], 0.37 µM on Human STING [3] and 0.085 µM on hSTING R232 [4].
For `BP1(=O)OCC2O[C@@H](n3cnc4c(N)ncnc43)[C@H](F)[C@@H]2OP(=O)(S)OC[C@H]2O[C@@H](n3cnc4c(=O)[nH]c(N)nc43)[C@H](F)[C@@H]2O1` (single isomer, unassigned) [Compound C4] the same measures were 0.7 µM, 6.29 µM, 0.63 µM and 0.34 µM.
In the case of `[BH3-][P+]1(O)OCC2OC(n3cnc4c(N)ncnc43)C(OP(=O)(O)OCC3OC(n4cnc5c(N)ncnc54)C(F)C3O1)C2F` (single isomer, unassigned) [Compound K1], the EC50 on hSTING R232 [1] was determined as 2.3 µM; at Human STING [2], 7.47 µM; on Human STING [3], 0.91 µM; at hSTING R232 [4] it was 0.72 µM.
For `[BH3-][P+]1(O)OCC2OC(n3cnc4c(N)ncnc43)C(OP(=O)(O)OCC3OC(n4cnc5c(N)ncnc54)C(F)C3O1)C2F` (single isomer, unassigned) [Compound K2] the same measures were 33 µM, 72.6 µM, 23 µM and 15 µM.
On the same counts, the results for `BP1(=O)OCC2O[C@@H](n3cnc4c(N)ncnc43)[C@H](F)[C@@H]2OP(=O)(O)OC[C@H]2O[C@@H](n3cnc4c(=O)[nH]c(N)nc43)[C@H](F)[C@@H]2O1` (stereo partly drawn) [Compound F1, ((2R,3R,3aR,5R,7aS,9R,10R,10aR,14aR)-2-(2-amino-6-oxo-1,6-dihydro-9H-purin-9-yl)-9-(6-amino-9H-purin-9-yl)-3,10-difluoro-12-hydroxy-5,12-dioxidooctahydro-2H,7H-difuro[3,2-d:3′,2′-j][1,3,7,9]tetraoxa[2,8]diphosphacyclododecin-5-yl)trihydroborate] are 2.44 µM, 6.59 µM, 1.16 µM and 0.63 µM.
For `BP1(=O)OCC2O[C@@H](n3cnc4c(N)ncnc43)[C@H](F)[C@@H]2OP(=O)(O)OC[C@H]2O[C@@H](n3cnc4c(=O)[nH]c(N)nc43)[C@H](F)[C@@H]2O1` (stereo partly drawn) [Compound F2, ((2R,3R,3aR,5R,7aS,9R,10R,10aR,14aR)-2-(2-amino-6-oxo-1,6-dihydro-9H-purin-9-yl)-9-(6-amino-9H-purin-9-yl)-3,10-difluoro-12-hydroxy-5,12-dioxidooctahydro-2H,7H-difuro[3,2-d:3′,2′-j][1,3,7,9]tetraoxa[2,8]diphosphacyclododecin-5-yl)trihydroborate] the same measures were 2.78 µM, 10 µM, 1.56 µM and 1.2 µM.
As to `BP1(=O)OC[C@H]2O[C@@H](n3cnc4c(=O)[nH]c(N)nc43)[C@H](F)[C@@H]2OP(=O)(O)OCC2O[C@@H](n3cnc4c(N)ncnc43)[C@H](F)[C@@H]2O1` (stereo partly drawn) [Compound G1, ((2R,3R,3aR,5R,7aR,9R,10R,10aR,14aS)-9-(2-amino-6-oxo-1,6-dihydro-9H-purin-9-yl)-2-(6-amino-9H-purin-9-yl)-3,10-difluoro-12-hydroxy-5,12-dioxidooctahydro-2H,7H-difuro[3,2-d:3′,2′-j][1,3,7,9]tetraoxa[2,8]diphosphacyclododecin-5-yl)trihydroborate], the EC50 worked out at 0.92 µM at hSTING R232 [1], 4.3 µM at Human STING [2], 0.63 µM on Human STING [3] and 0.41 µM at hSTING R232 [4].
`BP1(=O)OC[C@H]2O[C@@H](n3cnc4c(=O)[nH]c(N)nc43)[C@H](F)[C@@H]2OP(=O)(O)OCC2O[C@@H](n3cnc4c(N)ncnc43)[C@H](F)[C@@H]2O1` (stereo partly drawn) [Compound G2, ((2R,3R,3aR,5R,7aR,9R,10R,10aR,14aS)-9-(2-amino-6-oxo-1,6-dihydro-9H-purin-9-yl)-2-(6-amino-9H-purin-9-yl)-3,10-difluoro-12-hydroxy-5,12-dioxidooctahydro-2H,7H-difuro[3,2-d:3′,2′-j][1,3,7,9]tetraoxa[2,8]diphosphacyclododecin-5-yl)trihydroborate]: the EC50 on hSTING R232 [1] is 1.77 µM; on Human STING [2], 8.52 µM; at Human STING [3], 1.08 µM; on hSTING R232 [4], 0.94 µM.
On the same counts, the results for `B[P@]1(=O)OC[C@H]2O[C@@H](n3cnc4c(N)ncnc43)[C@H](F)[C@@H]2OP(=O)(O)OC[C@H]2O[C@@H](n3cnc4c(N)ncnc43)[C@H](O1)C2F` (some centres unmarked) [Compound I1] are 12.8 µM, 29 µM, 13.9 µM and 9.68 µM.
For `B[P@]1(=O)OC[C@H]2O[C@@H](n3cnc4c(N)ncnc43)[C@H](F)[C@@H]2OP(=O)(O)OC[C@H]2O[C@@H](n3cnc4c(N)ncnc43)[C@H](O1)C2F` (some centres unmarked) [Compound I2] the same measures were 11.2 µM, 34.7 µM, 6.27 µM and 5.43 µM.
On the same counts, the results for `BP1(=O)OC[C@H]2O[C@@H](n3cnc4c(N)ncnc43)[C@H](F)[C@@H]2OP(=O)(S)OC[C@H]2O[C@@H](n3cnc4c(N)ncnc43)[C@H](O1)C2F` (some centres unmarked) [Mixtures of H1, H2, H3, and H4] are 84.4 µM, greater than 100 µM, greater than 100 µM and 33.6 µM.
